In patent US20090098130A1, “GLUCAGON-LIKE PROTEIN-1 RECEPTOR (GLP-1R) AGONIST COMPOUNDS” (priority 2007, published 2009):
Non-standard residues stand in square brackets, D forms with d. Residues, ends and D or L forms follow the SMILES beside them. Aib = CC(C)(N)C(=O)O

system: pancreatic β cells; assay: glucose-stimulated insulin secretion (GSIS) assay; type: cell-based; conditions: GA targeting agent-linker conjugate; GSIS assay in vitro
Description: Briefly, glucose and GA targeting peptide was added at various concentrations to pancreatic β cell cultures, and insulin secretion was detected by measuring insulin levels over time. EC50 was calculated for each peptide.
The ability of these GA targeting agent-linker conjugates to stimulate […] secretion in vitro was measured using the GSIS assay described in Example 27. […] Each of these peptides contained a side-chain modified Lys residue according to the scheme illustrated in FIG. 30 at a different position.

EC50, < 10 µM:
CC[C@H](C)[C@H](NC(=O)[C@H](Cc1ccccc1)NC(=O)[C@H](CCC(=O)O)NC(=O)[C@H](CCCCN)NC(=O)[C@H](C)NC(=O)[C@H](C)NC(=O)[C@H](CCC(N)=O)NC(=O)CNC(=O)[C@H](CCC(=O)O)NC(=O)[C@H](CC(C)C)NC(=O)[C@H](Cc1ccc(O)cc1)NC(=O)[C@H](CO)NC(=O)[C@H](CO)NC(=O)[C@@H](NC(=O)[C@H](CC(=O)O)NC(=O)[C@H](CO)NC(=O)[C@@H](NC(=O)[C@H](Cc1ccccc1)NC(=O)[C@@H](NC(=O)CNC(=O)[C@H](CCC(=O)O)NC(=O)CNC(=O)[C@H](Cc1c[nH]cn1)NC(=O)CCOCCOCCOCCOCCNC(=O)CCCC(=O)Nc1ccc(CCC(=O)CC(C)=O)cc1)[C@@H](C)O)[C@@H](C)O)C(C)C)C(=O)N[C@@H](C)C(=O)N[C@@H](Cc1c[nH]c2ccccc12)C(=O)N[C@@H](CC(C)C)C(=O)N[C@H](C(=O)N[C@@H](CCCCN)C(=O)NCC(=O)N[C@@H](CCCNC(=N)N)C(=O)N[C@@H](CCCCN)C(N)=O)C(C)C

same assay, conditions: GA targeting peptide; insulin secretion from pancreatic β cell cultures in vitro with glucose

EC50, < 10 µM:
CC[C@H](C)[C@H](NC(=O)[C@H](Cc1ccccc1)NC(=O)[C@H](CCC(=O)O)NC(=O)[C@H](CCCCN)NC(=O)[C@H](C)NC(=O)[C@H](C)NC(=O)[C@H](CCC(N)=O)NC(=O)CNC(=O)[C@H](CCC(=O)O)NC(=O)[C@H](Cc1c[nH]c2ccccc12)NC(=O)[C@H](Cc1ccc(O)cc1)NC(=O)[C@H](CO)NC(=O)[C@H](CO)NC(=O)[C@@H](NC(=O)[C@H](CC(=O)O)NC(=O)[C@H](CO)NC(=O)[C@@H](NC(=O)[C@H](Cc1ccccc1)NC(=O)[C@@H](NC(=O)CNC(=O)[C@H](CCC(=O)O)NC(=O)C(C)(C)NC(=O)[C@@H](N)Cc1c[nH]cn1)[C@@H](C)O)[C@@H](C)O)C(C)C)C(=O)N[C@@H](C)C(=O)N[C@@H](Cc1c[nH]c2ccccc12)C(=O)N[C@@H](CC(C)C)C(=O)N[C@H](C(=O)N[C@@H](CCCCN)C(=O)NC(C)(C)C(=O)N[C@@H](CCCNC(=N)N)C(N)=O)C(C)C [SEQ ID NO: 44] (H-H[Aib]EGTFTSDVSSYWEGQAAKEFIAWLVK[Aib]R-NH2), CC[C@H](C)[C@H](NC(=O)[C@H](Cc1ccccc1)NC(=O)[C@H](CCC(=O)O)NC(=O)[C@H](CCCCN)NC(=O)[C@H](C)NC(=O)[C@H](C)NC(=O)[C@H](CCC(N)=O)NC(=O)CNC(=O)[C@H](CCC(=O)O)NC(=O)[C@H](Cc1ccccc1)NC(=O)[C@H](Cc1ccc(O)cc1)NC(=O)[C@H](CO)NC(=O)[C@H](CO)NC(=O)[C@@H](NC(=O)[C@H](CC(=O)O)NC(=O)[C@H](CO)NC(=O)[C@@H](NC(=O)[C@H](Cc1ccccc1)NC(=O)[C@@H](NC(=O)CNC(=O)[C@H](CCC(=O)O)NC(=O)C(C)(C)NC(=O)[C@@H](N)Cc1c[nH]cn1)[C@@H](C)O)[C@@H](C)O)C(C)C)C(=O)N[C@@H](C)C(=O)N[C@@H](Cc1c[nH]c2ccccc12)C(=O)N[C@@H](CC(C)C)C(=O)N[C@H](C(=O)N[C@@H](CCCCN)C(=O)NC(C)(C)C(=O)N[C@@H](CCCNC(=N)N)C(N)=O)C(C)C [SEQ ID NO: 42] (H-H[Aib]EGTFTSDVSSYFEGQAAKEFIAWLVK[Aib]R-NH2), CC[C@H](C)[C@H](NC(=O)[C@H](Cc1ccccc1)NC(=O)[C@H](CCC(=O)O)NC(=O)[C@H](CCCCN)NC(=O)[C@@H](NC(=O)[C@H](C)NC(=O)[C@H](CCC(N)=O)NC(=O)[C@H](CCC(=O)O)NC(=O)[C@H](CCC(=O)O)NC(=O)[C@H](CC(C)C)NC(=O)[C@H](Cc1ccc(O)cc1)NC(=O)[C@H](CO)NC(=O)[C@H](CO)NC(=O)[C@@H](NC(=O)[C@H](CC(=O)O)NC(=O)[C@H](CO)NC(=O)[C@@H](NC(=O)[C@H](Cc1ccccc1)NC(=O)[C@@H](NC(=O)CNC(=O)[C@H](CCC(=O)O)NC(=O)C(C)(C)NC(=O)[C@@H](N)Cc1c[nH]cn1)[C@@H](C)O)[C@@H](C)O)C(C)C)C(C)C)C(=O)N[C@@H](C)C(=O)N[C@@H](Cc1c[nH]c2ccccc12)C(=O)N[C@@H](CC(C)C)C(=O)N[C@H](C(=O)N[C@@H](CCCNC(=N)N)C(=O)NC(C)(C)C(=O)N[C@@H](CCCNC(=N)N)C(N)=O)[C@@H](C)CC [SEQ ID NO: 61] (H-H[Aib]EGTFTSDVSSYLEEQAVKEFIAWLIR[Aib]R-NH2), CC[C@H](C)[C@H](NC(=O)[C@H](Cc1ccccc1)NC(=O)[C@H](CCC(=O)O)NC(=O)[C@H](CCCCN)NC(=O)[C@H](C)NC(=O)[C@H](C)NC(=O)[C@H](CCC(N)=O)NC(=O)[C@H](CC(=O)O)NC(=O)[C@H](CCC(=O)O)NC(=O)[C@H](CC(C)C)NC(=O)[C@H](Cc1ccc(O)cc1)NC(=O)[C@H](CO)NC(=O)[C@H](CO)NC(=O)[C@@H](NC(=O)[C@H](CC(=O)O)NC(=O)[C@H](CO)NC(=O)[C@@H](NC(=O)[C@H](Cc1ccccc1)NC(=O)[C@@H](NC(=O)CNC(=O)[C@H](CCC(=O)O)NC(=O)C(C)(C)NC(=O)[C@@H](N)Cc1c[nH]cn1)[C@@H](C)O)[C@@H](C)O)C(C)C)C(=O)N[C@@H](C)C(=O)N[C@@H](Cc1c[nH]c2ccccc12)C(=O)N[C@@H](CC(C)C)C(=O)N[C@H](C(=O)N[C@@H](CCCCN)C(=O)NC(C)(C)C(=O)N[C@@H](CCCNC(=N)N)C(N)=O)C(C)C [SEQ ID NO: 46] (H-H[Aib]EGTFTSDVSSYLEDQAAKEFIAWLVK[Aib]R-NH2), CC[C@H](C)[C@H](NC(=O)[C@H](Cc1ccccc1)NC(=O)[C@H](CCC(=O)O)NC(=O)[C@H](CCCCN)NC(=O)[C@@H](NC(=O)[C@H](C)NC(=O)[C@H](CCC(N)=O)NC(=O)[C@H](CCC(=O)O)NC(=O)[C@H](CCC(=O)O)NC(=O)[C@H](CC(C)C)NC(=O)[C@H](Cc1ccc(O)cc1)NC(=O)[C@H](CO)NC(=O)[C@H](CO)NC(=O)[C@@H](NC(=O)[C@H](CC(=O)O)NC(=O)[C@H](CO)NC(=O)[C@@H](NC(=O)[C@H](Cc1ccccc1)NC(=O)[C@@H](NC(=O)CNC(=O)[C@H](CCC(=O)O)NC(=O)C(C)(C)NC(=O)[C@@H](N)Cc1c[nH]cn1)[C@@H](C)O)[C@@H](C)O)C(C)C)C(C)C)C(=O)N[C@@H](C)C(=O)N[C@@H](Cc1c[nH]c2ccccc12)C(=O)N[C@@H](CC(C)C)C(=O)N[C@H](C(=O)N[C@@H](CCCCN)C(=O)NC(C)(C)C(=O)N[C@@H](CCCNC(=N)N)C(N)=O)[C@@H](C)CC [SEQ ID NO: 57], CC[C@H](C)[C@H](NC(=O)[C@H](Cc1ccccc1)NC(=O)[C@H](CCC(=O)O)NC(=O)[C@H](CCCCN)NC(=O)[C@H](C)NC(=O)[C@H](C)NC(=O)[C@H](CCC(N)=O)NC(=O)CNC(=O)[C@H](CCC(=O)O)NC(=O)[C@H](Cc1ccc(O)cc1)NC(=O)[C@H](Cc1ccc(O)cc1)NC(=O)[C@H](CO)NC(=O)[C@H](CO)NC(=O)[C@@H](NC(=O)[C@H](CC(=O)O)NC(=O)[C@H](CO)NC(=O)[C@@H](NC(=O)[C@H](Cc1ccccc1)NC(=O)[C@@H](NC(=O)CNC(=O)[C@H](CCC(=O)O)NC(=O)C(C)(C)NC(=O)[C@@H](N)Cc1c[nH]cn1)[C@@H](C)O)[C@@H](C)O)C(C)C)C(=O)N[C@@H](C)C(=O)N[C@@H](Cc1c[nH]c2ccccc12)C(=O)N[C@@H](CC(C)C)C(=O)N[C@H](C(=O)N[C@@H](CCCCN)C(=O)NC(C)(C)C(=O)N[C@@H](CCCNC(=N)N)C(N)=O)C(C)C [SEQ ID NO: 43] (H-H[Aib]EGTFTSDVSSYYEGQAAKEFIAWLVK[Aib]R-NH2)
